Test results published in patent US20200261445A1, “USE OF SENOLYTIC AGENTS TO ELIMINATE PERSISTENT HIV RESERVOIRS” (The George Washington University, priority 2017, published 2020).

Assays:
Bcl-2 family proteins = details: selectivity within the Bcl-2 family, Table 1; cited from earlier work
[1] = test system: HIV latency reservoir (resting CD4+ T cells); experiment: HIVE assay with ddPCR of total HIV DNA, three HIV latency reservoir models; format: cell-based; details: A-463 only (100 nM per FIG. 9E); all three models; p<0.01
Description: (§1) For each condition tested, up to 200×10^6 PBMC were thawed from leukapheresis material. An aliquot of PBMCs was stained with antibodies to CD3, CD4, CD8, HLA-DR, and CD69 for flow cytometry analysis (pre-selection sample). Resting CD4^+ T-cells were enriched from these PBMC by negative selection (Easysep CD4^+ T-cell enrichment kit, Stemcell Technologies) following the manufacturer's instructions. Cells were washed and re-suspended in 1 ml of 2% FBS PBS and an aliquot was stained as above (post-selection sample). To proceed, >98% pure resting CD4^+ T-cells in the negative fraction we required. […]
(§2) Co-cultures were harvested at 4 days post-initiation of co-culture. […] CD4^+ T-cells were then fixed in 2% paraformaldehyde, and analyzed by flow cytometry on an LSR-II instrument and with FlowJo software.
(§3) DNA quantification: 2×10^6 cells/condition were centrifuged and DNA, for ddPCR, was extracted from cell pellets using the Gentra Puregene kit (Qiagen), following the manufacturer's instructions. This DNA was then analyzed by digital droplet polymerase chain reaction (see below). Infectious virus quantification: The remaining cells, to be used for viral outgrowth assays, were incubated overnight in R10-50+4 nM IL-15SA (ALT-803) at a concentration of 2×10^6 cells/ml. These cells are then plated out in quantitative viral outgrowth assays (see below). […]

[2] = test system: HIV latency reservoir (resting CD4+ T cells); experiment: HIVE assay with quantitative viral outgrowth (IUPM), three HIV latency reservoir models; format: cell-based; details: A-463 only (100 nM per FIG. 9F); all three models; p<0.01
Description: as §1, §2, §3

resting CD4+ T cells = experiment: Cell cytotoxicity in HIV latency reservoir model cultures; format: cell-based, human; details: ABT-199 at 1 μM; not enough cells left to measure replication-competent virus (FIG. 9A)
Description: For each condition tested, up to 200×10^6 PBMC were thawed from leukapheresis material. An aliquot of PBMCs was stained with antibodies to CD3, CD4, CD8, HLA-DR, and CD69 for flow cytometry analysis (pre-selection sample). Resting CD4^+ T-cells were enriched from these PBMC by negative selection (Easysep CD4^+ T-cell enrichment kit, Stemcell Technologies) following the manufacturer's instructions. Cells were washed and re-suspended in 1 ml of 2% FBS PBS and an aliquot was stained as above (post-selection sample). To proceed, >98% pure resting CD4^+ T-cells in the negative fraction we required.
NK cells and CTL clones were added at 1:10 effector:target ratios, with or without the indicated latency reversing agents. Co-cultures were performed at 2×10^6 cells/ml in XVIVO-15 serum free medium (Lonza) that had been supplemented with penicillin-streptomycin, L-glutamine, 0.1 nM IL-7 (to support survival), 1 μM tenofovir, 1 μM nevirapine, 1 μM emtricitabine, 10 μM T20, 10 U/ml DNAse I (ProSpec) ([…]). […]
Co-cultures were harvested at 4 days post-initiation of co-culture. […] CD4^+ T-cells were then fixed in 2% paraformaldehyde, and analyzed by flow cytometry on an LSR-II instrument and with FlowJo software. […]

Bcl-xL = Bcl-xL (Homo sapiens, UniProt Q07817); details: Table 1; cited from earlier work
Bcl-xL, sequence (Q07817 whole entry): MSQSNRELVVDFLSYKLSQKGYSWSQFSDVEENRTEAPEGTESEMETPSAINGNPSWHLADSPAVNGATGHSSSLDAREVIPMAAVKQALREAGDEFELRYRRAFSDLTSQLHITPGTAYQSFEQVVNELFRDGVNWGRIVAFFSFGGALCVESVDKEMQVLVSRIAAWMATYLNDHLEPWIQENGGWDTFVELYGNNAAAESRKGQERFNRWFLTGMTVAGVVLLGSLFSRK

[3] = test system: HIV latency reservoir models spiked into natural reservoirs; experiment: 'Spiked' HIVE assay with QVOA (latency model cells spiked into natural reservoirs); format: cell-based; details: Bryostatin 10 nM, ABT-199 100 nM, HIV-specific CTLs, FIG. 10
Description: For experiments using CTL clones as effectors, clones were used at […] after their most recent re-stimulation. Specificity, functionality, and responsiveness of CTLs were confirmed by CD107a degranulation assays, as well as by HIV elimination assays the day before assay setup. Clones were washed extensively prior to addition to co-culture.
NK cells and CTL clones were added at 1:10 effector:target ratios, with or without the indicated latency reversing agents. […]
as §2, §3

| Molecule | Selective/pan (Bcl-2 family proteins) | Known Bcl-xL inhibition (Bcl-xL) | also measured |
| --- | --- | --- | --- |
| CN(C)CC#Cc1ccc(OCCCc2sc(N3CCc4cccc(C(=O)Nc5nc6ccccc6s5)c4C3)nc2C(=O)O)c(F)c1 [A-1155463] | Selective |  | total HIV DNA copies [1]: statistically significant reduction; infectious replicative competent (IUPM) [2]: statistically significant reduction |
| Cc1nn(C)c(COc2ccc(N3CCN(S(=O)(=O)N(C)C)CC3)cc2)c1-c1cccc2c(CCCOc3cccc4ccccc34)c(C(=O)O)n(CCN3CCOCC3)c12 [A-1210477] | Selective |  |  |
| Cc1c(-c2ccc(N3CCc4cccc(C(=O)Nc5nc6ccccc6s5)c4C3)nc2C(=O)O)cnn1CC12CC3CC(CC(C3)C1)C2 [A-1331852] | Selective |  |  |
| CC1(C)CCC(CN2CCN(c3ccc(C(=O)NS(=O)(=O)c4ccc(NCC5CCOCC5)c([N+](=O)[O-])c4)c(Oc4cnc5[nH]ccc5c4)c3)CC2)=C(c2ccc(Cl)cc2)C1 [ABT-199, Venetoclax] |  |  | cell cytotoxicity (resting CD4+ T cells): cell cytotoxicity |
| Cc1cc2c(C(C)C)c(O)c(O)c(C=O)c2c(O)c1-c1c(C)cc2c(C(C)C)c(O)c(O)c(C=O)c2c1O [AT101] | Pan | Yes |  |
| CC(C)C(C(=O)O)N1C(=O)/C(=C\c2ccc(Br)cc2)SC1=S (centres unmarked) [BH31-1] | Pan | Yes |  |
| CCC/C=C/C=C/C(=O)O[C@H]1/C(=C/C(=O)OC)C[C@H]2C[C@H]([C@@H](C)O)OC(=O)C[C@H](O)C[C@@H]3C[C@H](OC(C)=O)C(C)(C)[C@](O)(C[C@@H]4C/C(=C/C(=O)OC)C[C@H](/C=C/C(C)(C)[C@]1(O)O2)O4)O3 [Bryostatin, bryostatin 1] |  |  | IUPM compared to the NoTx condition [3]: did not lead to significant decreases |
| CC(C)=CCC[C@]1(C)C=Cc2c(O)c3c(c(CC=C(C)C)c2O1)O[C@]12C(=C[C@@H]4C[C@H]1C(C)(C)O[C@@]2(C/C=C(/C)C(=O)O)C4=O)C3=O [Gambogic Acid] | Pan | Yes |  |
| Cc1cc2c(C(=O)NC[C@H](C)c3ccccc3)c(O)c(O)cc2c(O)c1-c1c(C)cc2c(C(=O)NC[C@H](C)c3ccccc3)c(O)c(O)cc2c1O [Sabutoclax] | Pan | Yes |  |
| CC(C)c1ccccc1Cc1cc(C(=O)Nc2ccc(S(=O)(=O)c3ccccc3C(C)(C)C)cc2)c(O)c(O)c1O [TW-37] | Pan | Yes |  |
| O=C(O)CSc1cc(NS(=O)(=O)c2ccc(Br)cc2)c2ccccc2c1O [UMI-77] | Selective |  |  |
| ABT-263 | Pan | Yes |  |
